Data taken from patent publication US11325929B2 (VivaVisionShanghaiLtd, priority 2017, dated 2022).

The compounds below were run on human T lymphocyte strain Jurkat (ATCC TIB-152) adhesion to ICAM-1 (assay: T-cell adhesion assay (Jurkat cells on ICAM-1 coated plates)). Settings: BCECF-AM labelled Jurkat cells, ICAM-1 coated plate, fluorescence readout; read-out: EC50 of cell adhesion and inhibition.
Format: cell-based
Experimental: Cell Adhesion Inhibition Experiments:
T-cell adhesion assay was performed using human T lymphocyte strain Jurkat (ATCC TIB-152): goat Anti-Human IgG (Fc specific) (Sigma 18885) was diluted to 10 μg/ml in PBS, incubated 100 μL per well/96 well plate at 4° C. for 12 hours. Liquid in the well plate was poured off, blocked with 200 μL of 1% BSA at 37° C. for 90 minutes, and washed three times with PBS. 50 μL of 1 μg/mL ICAM-1 (containing 0.1% BSA, 0.01% Tween 20) was added to each well and incubated at 37° C. for 3 hours. The plate was washed 3 times with assay buffer (20 mM HEPES pH 7.6, 140 mM NaCl, 1 mM MgCl2, 1 mM MnCl2, 0.2% glucose).
The Jurkat […] was centrifuged at 100-G, and cells were resuspended in an assay buffer (20 mM HEPES pH 7.6, 140 mM NaCl, 1 mM MgCl2, 1 mM MnCl2, 0.2% glucose) at 37° C.
2 μl of 1 mM of BCECF-AM per mL of the cell suspension was added. Incubated at 37° C. for 30 minutes, stirred up every 10 minutes during the incubation. After the incubation, the cells were washed with assay buffer at 37° C. The cells were suspended to a concentration of 6×10^6/mL.
The inhibitor was diluted to a final concentration of 2× in assay buffer, and 50 μL of the compound solution and […] of Jurkat cells were mixed at room temperature, and incubated at 37° C. for 30 minutes. 100 μL/well of cells and inhibitors were added to the plate and incubated for 1 hour at room temperature. The total fluorescence was measured by a fluorometer: ex: 485; em: 530; cutoff: 530 to measure the total fluorescence. The plate was washed once with the assay buffer and the fluorescence was measured with a fluorometer: ex: 485; em: 530; cutoff. The results are plotted as inhibition-concentration plots and EC50 is calculated using standard methods.

Compound “2-(2,6-dichloro-4-(2-(methyl(3-hydroxyphenyl)phosphoryl)ethyl)benzylamino)-3-(3,5-(dimethylsulfonyl)phenyl)propionic Acid [Example 36]” has an EC50 of 0.03 µM.

Same assay, conditions: Homo sapiens; BCECF-AM labelled Jurkat cells, ICAM-1 coated plate, fluorescence readout; read-out: EC50 of cell adhesion and inhibition

Point of comparison: `COP(=O)(C#Cc1cc(Cl)c(C(=O)N[C@@H](Cc2cccc(S(C)(=O)=O)c2)C(=O)O)c(Cl)c1)c1ccccc1` (some centres unmarked) [Example 5], EC50 0.022 µM. Against it:
- CS(=O)(=O)c1cccc(C[C@H](NC(=O)c2c(Cl)cc(CCP(=O)(O)c3ccccc3)cc2Cl)C(=O)O)c1 [Example 1, (2s)-2-(2,6-dichloro-4-(2-(hydroxy(phenyl)phosphoryl)ethyl)benzamido)-3-(3-(methylsulfonyl)phenyl)propionic Acid] — within 1.5-fold, 0.03 µM
- CS(=O)(=O)c1cccc(C[C@H](NC(=O)c2c(Cl)cc(C#CP(=O)(O)c3cccc(O)c3)cc2Cl)C(=O)O)c1 [Example 2] — 2.3-fold lower, 0.0094 µM
- CS(=O)(=O)c1cccc(C[C@H](NC(=O)c2c(Cl)cc(CCP(=O)(O)c3cccc(O)c3)cc2Cl)C(=O)O)c1 [Example 3, (2s)-2-(2,6-dichloro-4-(2-(hydroxy(m-hydroxyphenyl)phosphoryl)ethyl)benzamido)-3-(3-(methylsulfonyl)phenyl)propionic Acid] — 2.6-fold lower, 0.0085 µM
- CCOP(=O)(CCc1cc(Cl)c(C(=O)N[C@@H](Cc2cccc(S(C)(=O)=O)c2)C(=O)O)c(Cl)c1)c1cccc(O)c1 (some centres unmarked) [Example 6, (2s)-2-(2,6-dichloro-4-(2-(ethoxy(m-hydroxyphenyl)phosphoryl)ethyl)benzamido)-3-(3-(methylsulfonyl)phenyl)propionic Acid] — within 1.5-fold, 0.017 µM
- COP(=O)(C#Cc1cc(Cl)c(C(=O)N[C@@H](Cc2cccc(S(C)(=O)=O)c2)C(=O)O)c(Cl)c1)c1cccc(O)c1 (some centres unmarked) [Example 7] — 3.1-fold lower, 0.0072 µM
- COP(=O)(CCc1cc(Cl)c(C(=O)N[C@@H](Cc2cccc(S(C)(=O)=O)c2)C(=O)O)c(Cl)c1)c1cccc(O)c1 (some centres unmarked) [Example 8, (2s)-2-(2,6-dichloro-4-(2-(methoxy(3-hydroxyphenyl)phosphoryl)ethyl)benzylamido)-3-(3-(methylsulfonyl)phenyl)propionic Acid] — 3.5-fold lower, 0.0062 µM
- CP(=O)(C#Cc1cc(Cl)c(C(=O)N[C@@H](Cc2cccc(S(C)(=O)=O)c2)C(=O)O)c(Cl)c1)c1ccccc1 (some centres unmarked) [Example 9] — 1.9-fold lower, 0.0118 µM
- CP(=O)(CCc1cc(Cl)c(C(=O)N[C@@H](Cc2cccc(S(C)(=O)=O)c2)C(=O)O)c(Cl)c1)c1ccccc1 (some centres unmarked) [Example 10, (2s)-2-(2,6-dichloro-4-(2-(methyl(phenyl)phosphoryl)ethyl)benzamide)-3-(3-(methylsulfonyl)phenyl)propionic Acid] — 3.5-fold higher, 0.078 µM
- CP(=O)(C#Cc1cc(Cl)c(C(=O)N[C@@H](Cc2cccc(S(C)(=O)=O)c2)C(=O)O)c(Cl)c1)c1cccc(O)c1 (some centres unmarked) [Example 11] — 1.6-fold lower, 0.0135 µM
- COc1cccc(P(=O)(C#Cc2cc(Cl)c(C(=O)N[C@@H](Cc3cccc(S(C)(=O)=O)c3)C(=O)O)c(Cl)c2)OC)c1 (some centres unmarked) [Example 12] — within 1.5-fold, 0.029 µM
- COc1cccc(P(=O)(O)C#Cc2cc(Cl)c(C(=O)N[C@@H](Cc3cccc(S(C)(=O)=O)c3)C(=O)O)c(Cl)c2)c1 [Example 13] — within 1.5-fold, 0.029 µM
- CP(=O)(CCc1cc(Cl)c(C(=O)N[C@@H](Cc2cccc(S(C)(=O)=O)c2)C(=O)O)c(Cl)c1)c1cccc(O)c1 (some centres unmarked) [Example 14] — 2.6-fold lower, 0.0085 µM
- CP(=O)(C#Cc1cc(Cl)c(C(=O)N[C@@H](Cc2cccc(S(C)(=O)=O)c2)C(=O)O)c(Cl)c1)c1ccc(O)cc1 (some centres unmarked) [Example 15] — 12-fold lower, 0.0018 µM
- CS(=O)(=O)c1cccc(C[C@H](NC(=O)c2c(Cl)cc(C#CP(=O)(O)c3ccccc3)cc2Cl)C(=O)O)c1 [Example 16] — 3.1-fold lower, 0.0072 µM
- CP(=O)(CCc1cc(Cl)c(C(=O)N[C@@H](CNC(=O)c2cccs2)C(=O)O)c(Cl)c1)c1cccc(O)c1 (some centres unmarked) [Example 17, (2s)-2-(2,6-dichloro-4-(2-(methyl(3-hydroxyphenyl)phosphoryl)ethyl)benzamido)-3-(2-thenoylamide)propyl Acid] — within 1.5-fold, 0.015 µM
- CP(=O)(CCc1cc(Cl)c(C(=O)N[C@@H](CN/C(=N\C#N)N2CC[C@@H](O)C2)C(=O)O)c(Cl)c1)c1cccc(O)c1 (stereo partly drawn) [Example 19, (2s)-3-((R)—N′-cyano-3-hydroxytetrahydropyrrol-1-formamidino)-2-(2,6-dichloro-4-(2-(methyl(3-hydroxyphenyl)phosphoryl)ethyl)benzamido)propionic Acid] — 10-fold higher, 0.23 µM
- CCP(=O)(CCc1cc(Cl)c(C(=O)N[C@@H](Cc2cccc(S(C)(=O)=O)c2)C(=O)O)c(Cl)c1)c1cccc(O)c1 (some centres unmarked) [Example 21] — 3-fold lower, 0.0073 µM
- CS(=O)(=O)c1cccc(C[C@H](NC(=O)c2c(Cl)cc(CCP(=O)(c3cccc(O)c3)C3CC3)cc2Cl)C(=O)O)c1 (some centres unmarked) [Example 22] — the same, 0.022 µM
- CCCCP(=O)(CCc1cc(Cl)c(C(=O)N[C@@H](Cc2cccc(S(C)(=O)=O)c2)C(=O)O)c(Cl)c1)c1cccc(O)c1 (some centres unmarked) [Example 23] — 2.8-fold higher, 0.061 µM
- CP(=O)(CCc1cc(Cl)c(C(=O)N[C@@H](Cc2cccc(S(C)(=O)=O)c2)C(=O)O)c(Cl)c1)c1ccc2ccoc2c1 (some centres unmarked) [Example 25] — 2.9-fold higher, 0.063 µM
- CP(=O)(CCc1cc(Cl)c(C(=O)N[C@@H](Cc2cccc(S(C)(=O)=O)c2)C(=O)O)c(Cl)c1)c1cc2ccccc2o1 (some centres unmarked) [Example 26] — within 1.5-fold, 0.023 µM
- C[P@](=O)(CCc1cc(Cl)c(C(=O)N[C@@H](Cc2cccc(S(C)(=O)=O)c2)C(=O)O)c(Cl)c1)c1cccc(O)c1 [Example 30] — 3.1-fold lower, 0.0072 µM
- C[P@@](=O)(CCc1cc(Cl)c(C(=O)N[C@@H](Cc2cccc(S(C)(=O)=O)c2)C(=O)O)c(Cl)c1)c1cccc(O)c1 [Example 31] — 3.1-fold lower, 0.0071 µM
- CCOP(=O)(/C=C/c1cc(Cl)c(C(=O)N[C@@H](Cc2cccc(S(C)(=O)=O)c2)C(=O)O)c(Cl)c1)c1cccc(O)c1 (stereo partly drawn) [Example 32, (S,E)-2-(4-(2-(3-hydroxyphenyl)phosphonovinyl)-2,6-dichlorobenzamide)-3-(3-(methylsulfonyl)phenyl)propionic Acid] — 5.9-fold lower, 0.0037 µM
- CP(=O)(CCc1cc(Cl)c(C(=O)N[C@@H](Cc2cccc(S(C)(=O)=O)c2)C(=O)O)c(Cl)c1)c1ccc(O)cc1 (some centres unmarked) [Example 33] — 2-fold lower, 0.0108 µM
- CP(=O)(CCc1cc(Cl)c(C(=O)N[C@@H](CNC(=O)c2cccc(O)c2)C(=O)O)c(Cl)c1)c1cccc(O)c1 (some centres unmarked) [Example 34, (2s)-2-(2,6-dichloro-4-(2-(methyl(3-hydroxyphenyl)phosphoryl)ethyl)benzamido)-3-(3-hydroxybenzamido)propionic Acid] — 1.8-fold lower, 0.0125 µM
- CP(=O)(CCc1cc(Cl)c(C(=O)N[C@@H](CNC(=O)c2cc(O)cc(O)c2)C(=O)O)c(Cl)c1)c1cccc(O)c1 (some centres unmarked) [Example 35, (2s)-2-(2,6-dichloro-4-(2-(methyl(3-hydroxyphenyl)phosphoryl)ethyl)benzamido)-3-(3,5-dihydroxybenzamido)propionic Acid] — 5.8-fold lower, 0.0038 µM
- CP(=O)(CCc1cc(Cl)c(C(=O)N[C@@H](CCCCNS(C)(=O)=O)C(=O)O)c(Cl)c1)c1cccc(O)c1 (some centres unmarked) [Example 37] — higher, > 1 µM
- CP(=O)(CCc1cc(Cl)c(C(=O)N[C@@H](Cc2cncc(S(C)(=O)=O)c2)C(=O)O)c(Cl)c1)c1cccc(O)c1 (some centres unmarked) [Example 38] — within 1.5-fold, 0.024 µM
- CP(=O)(CCc1cc(Cl)c(C(=O)N[C@@H](CC2CCN(S(C)(=O)=O)C2)C(=O)O)c(Cl)c1)c1cccc(O)c1 (some centres unmarked) [Example 42] — 6.8-fold higher, 0.15 µM
